In patent US20200377501A1, “DEGRADERS OF EGFR AND METHODS OF USE THEREOF” (DANA-FARBER CANCER INSTITUTE, INC., priority 2018, published 2020):
Where two headings read alike, the source gives them in different places.

Assays:
[1] = biological target: T1, recombinant EGFR T790M/L858R kinase (Homo sapiens, UniProt P00533, L858R/T790M); assay: HTRF-based EGFR biochemical assay
T1 construct: Constructs spanning residues 696-1022 of the human EGFR; GST (cleaved yes); made in house; host or cells: Sf9 insect cells (pTriEX system)
T1 sequence (P00533 696-1022 T790M/L858R): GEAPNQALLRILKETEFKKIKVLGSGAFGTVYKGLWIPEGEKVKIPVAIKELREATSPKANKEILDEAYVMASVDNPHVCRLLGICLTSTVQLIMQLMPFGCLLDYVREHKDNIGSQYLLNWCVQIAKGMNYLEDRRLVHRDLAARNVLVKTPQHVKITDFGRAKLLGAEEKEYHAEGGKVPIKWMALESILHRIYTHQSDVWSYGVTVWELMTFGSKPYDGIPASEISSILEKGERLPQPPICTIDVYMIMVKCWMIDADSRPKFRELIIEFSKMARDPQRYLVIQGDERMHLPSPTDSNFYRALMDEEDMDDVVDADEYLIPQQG
Description: Constructs spanning residues 696-1022 of the human EGFR (including wild type and L858R, L858R/T790M, T790M, and T790M/V948R mutant sequences) were prepared in a GST-fusion format using the pTriEX system (Novagen) for expression in Sf9 insect cells essentially as described (Yun et al., PNAS 105, 2070-2075 (2008); Yun et al., Cancer Cell 11, 217-227 (2007)). EGFR kinase proteins were purified by glutathione-affinity chromatography followed by size-exclusion chromatography after cleavage with TEV or thrombin to remove the GST fusion partner following established procedures.
EGFR biochemical assays were carried out using a homogeneous time-resolved fluorescence (HTRF) assay as described previously. […] All reactions were carried out at room temperature in white ProxiPlate™ 384-well Plus plates (PerkinElmer) and were quenched with 5 μL of 0.2 M EDTA at 60 min.

[2] = biological target: T2, EGFR T790M/L858R Ba/F3 cell line (Homo sapiens, UniProt P00533, T790M/L858R, cells depend on it); assay: Ba/F3 cell proliferation (MTS assay); type: cell-based, murine; settings: for Remaining cell proliferation activity (% of control): EGFR T790M/L858R Ba/F3
T2 construct: The constructs were shuttled into the retroviral vector JP1540 using the BD Creator™ System (BD Biosciences)
T2 sequence (P00533 whole entry T790M/L858R): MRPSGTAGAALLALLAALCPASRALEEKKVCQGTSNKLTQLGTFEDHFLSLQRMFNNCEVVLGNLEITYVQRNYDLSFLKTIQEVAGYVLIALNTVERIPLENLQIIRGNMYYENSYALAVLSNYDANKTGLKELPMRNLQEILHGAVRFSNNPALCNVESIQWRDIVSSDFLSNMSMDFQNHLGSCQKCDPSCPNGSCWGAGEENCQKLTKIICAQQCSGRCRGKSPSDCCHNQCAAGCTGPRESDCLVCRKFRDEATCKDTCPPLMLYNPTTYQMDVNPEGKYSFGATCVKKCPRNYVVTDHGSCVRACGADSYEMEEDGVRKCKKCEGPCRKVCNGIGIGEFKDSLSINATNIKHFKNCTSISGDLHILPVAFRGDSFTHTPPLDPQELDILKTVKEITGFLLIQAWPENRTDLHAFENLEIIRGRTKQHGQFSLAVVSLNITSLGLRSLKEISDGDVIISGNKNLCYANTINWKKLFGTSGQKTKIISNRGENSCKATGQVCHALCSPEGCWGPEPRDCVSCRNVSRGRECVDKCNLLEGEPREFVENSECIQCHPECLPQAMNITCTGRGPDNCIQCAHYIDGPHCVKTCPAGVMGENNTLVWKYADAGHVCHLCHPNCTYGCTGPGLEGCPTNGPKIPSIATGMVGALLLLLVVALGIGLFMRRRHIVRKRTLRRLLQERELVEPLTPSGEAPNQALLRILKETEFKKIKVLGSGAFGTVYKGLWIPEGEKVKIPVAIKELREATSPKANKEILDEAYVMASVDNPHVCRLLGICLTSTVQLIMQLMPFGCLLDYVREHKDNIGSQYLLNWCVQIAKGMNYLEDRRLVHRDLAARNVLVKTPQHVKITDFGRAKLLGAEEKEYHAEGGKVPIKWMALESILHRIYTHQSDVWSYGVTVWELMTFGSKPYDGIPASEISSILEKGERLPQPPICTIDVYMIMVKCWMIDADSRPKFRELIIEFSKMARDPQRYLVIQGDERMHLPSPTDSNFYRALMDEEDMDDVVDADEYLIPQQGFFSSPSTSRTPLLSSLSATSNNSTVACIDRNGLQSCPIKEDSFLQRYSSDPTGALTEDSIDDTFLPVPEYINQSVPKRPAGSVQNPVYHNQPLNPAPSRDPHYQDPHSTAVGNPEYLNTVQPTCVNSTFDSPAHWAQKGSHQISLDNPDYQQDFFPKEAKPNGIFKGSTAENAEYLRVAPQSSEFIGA
Description: The EGFR mutant L858R, Del E746_A750, L858R/T790M, DelE746_A750/T790M, L858R/T790M/C797S and Del/T790M/C797S Ba/F3 cells were previously described (Zhou et al., Nature 462, (2009), 1070-1074). All cell lines were maintained in RPMI 1640 (Cellgro; Mediatech Inc., Herndon, Calif.) supplemented with 10% FBS 100 units/mL penicillin, 100 units/mL streptomycin, and 2 mM glutamine. L858R cells were maintained in ACL-4 media (Invitrogen, Carlsbad, Calif.) supplemented with 5% FBS, 100 units/mL penicillin, 100 units/mL streptomycin, and 2 mM glutamine. The EGFR 1941R mutation was introduced via site directed mutagenesis using the Quick Change Site-Directed Mutagenesis kit (Stratagene; La Jolla, Calif.) according to the manufacturer's instructions. All constructs were confirmed by DNA sequencing. The constructs were shuttled into the retroviral vector JP1540 using the BD Creator™ System (BD Biosciences). Ba/F3 cells were infected with retrovirus and according to standard protocols, as described previously (Zhou 2009). Stable clones were obtained by selection in puromycin (2 μg/ml).
Growth and inhibition of growth was assessed by MTS assay and was performed according to previously established methods (Zhou 2009). The MTS assay is a colorimetric method for determining the number of viable cells that is based on the bioreduction of MTS by cells to a formazan product that is soluble in cell culture medium and can be detected spectrophotometrically. […] All experimental points were set up in six wells and all experiments were repeated at least three times. […] The curves were fitted using anon-linear regression model with a sigmoidal dose response.

[3] = absence of cetuximab, read-out: Ba/F3 cellular activity (EC50) T790M/L858R
[4] = read-out: Ba/F3 cellular activity (EC50) T790M/L858R + Cetuximab (1 μg/mL), presence of 1 μg/mL cetuximab
[5] = compound at 1 μM in the presence of 1 μg/mL cetuximab

| Compound | IC50 [1] | EC50 [2, 3] | EC50 [2, 4] | Remaining cell proliferation activity (% of control) [2, 5] | Remaining cell proliferation activity (% of control) ([2]; compound at 1 μM) |
| --- | --- | --- | --- | --- | --- |
| O=C1c2cc(-c3ccc(-c4cn[nH]c4)cc3)ccc2Nc2ccc(F)cc2N1Cc1ccccc1 [I-4] | – | ≥ 0.75 µM | 0.25 to 0.5 µM | A (0 ≤ A < 25) | D (75 ≤ D) |
| O=C1c2cc(-c3ccc(N4CCNCC4)cc3)ccc2Nc2ccc(F)cc2N1Cc1nccs1 [I-7] | – | ≥ 0.75 µM | ≥ 0.75 µM | C (50 ≤ C < 75) | D (75 ≤ D) |
| CN1CCC(n2cc(-c3ccc4c(c3)C(=O)N(Cc3ccccc3)c3cc(F)ccc3N4)cn2)CC1 [I-3] | – | ≥ 0.75 µM | < 0.25 µM | B (25 ≤ B < 50) | D (75 ≤ D) |
| O=C1c2cc(-c3ccc(N4CCNCC4)cc3)ccc2Nc2ccc(F)cc2N1c1ccccc1 [I-5] | – | ≥ 0.75 µM | ≥ 0.75 µM | D (75 ≤ D) | D (75 ≤ D) |
| O=C1c2cc(-c3ccc(N4CCNCC4)cc3)ccc2Nc2ccc(F)cc2N1Cc1ccccc1 [I-1, 10-Benzyl-8-fluoro-2-(4-(piperazin-1-yl)phenyl)-5,10-dihydro-11H-dibenzo[b,e][1,4]diazepin-11-one] | < 0.25 µM | ≥ 0.75 µM | 0.5 to 0.75 µM | B (25 ≤ B < 50) | D (75 ≤ D) |
| O=C1c2cc(-c3ccc(N4CCNCC4)cc3)ccc2Nc2ccc(F)cc2N1Cc1cccnc1 [I-6] | – | ≥ 0.75 µM | ≥ 0.75 µM | D (75 ≤ D) | D (75 ≤ D) |
| O=C1c2cc(-c3ccc4[nH]ccc4c3)ccc2Nc2ccc(F)cc2N1Cc1nccs1 [I-10] | – | ≥ 0.75 µM | ≥ 0.75 µM | D (75 ≤ D) | D (75 ≤ D) |
| O=C1c2cc(-c3ccc4[nH]ccc4c3)ccc2Nc2ccc(F)cc2N1Cc1ccccc1 [I-2] | – | ≥ 0.75 µM | < 0.25 µM | B (25 ≤ B < 50) | D (75 ≤ D) |
| O=C1c2cc(-c3ccc4[nH]ccc4c3)ccc2Nc2ccc(F)cc2N1c1ccccc1 [I-8] | – | ≥ 0.75 µM | ≥ 0.75 µM | D (75 ≤ D) | D (75 ≤ D) |
| O=C1c2cc(-c3ccc4[nH]ccc4c3)ccc2Nc2ccc(F)cc2N1Cc1cccnc1 [I-9] | – | ≥ 0.75 µM | ≥ 0.75 µM | D (75 ≤ D) | D (75 ≤ D) |

Next, values leading:

| IC50 [1] | EC50 [2, 3] | EC50 [2, 4] | Remaining cell proliferation activity (% of control) [2, 5] | Remaining cell proliferation activity (% of control) ([2]; compound at 1 μM) | Compound |
| --- | --- | --- | --- | --- | --- |
| < 0.25 µM | – | – | – | – | CN1CCN(c2ccc(-c3ccc4c(c3)C(=O)N(Cc3ccccc3)c3cc(F)ccc3N4)cc2)CC1 [I-17] |
| – | ≥ 0.75 µM | ≥ 0.75 µM | – | – | O=C1c2cc(-c3ccc(N4CCNCC4)cc3)ccc2Nc2ccncc2N1Cc1ccccc1 [I-13] |
| – | ≥ 0.75 µM | ≥ 0.75 µM | – | – | Nc1ccc2c(c1)N(Cc1ccccc1)C(=O)c1cc(-c3ccc4[nH]ccc4c3)ccc1N2 [I-14] |
| – | ≥ 0.75 µM | ≥ 0.75 µM | – | – | CN1CCC(n2cc(-c3ccc4c(c3)C(=O)N(Cc3cccc(Cl)c3)c3cc(F)ccc3N4)cn2)CC1 [I-23] |
| – | ≥ 0.75 µM | 0.25 to 0.5 µM | B (25 ≤ B < 50) | D (75 ≤ D) | O=C1c2cc(-c3ccc(N4CCNCC4)cc3)ccc2Nc2ccccc2N1Cc1ccccc1 [I-11] |
| – | ≥ 0.75 µM | ≥ 0.75 µM | – | – | CN1CCC(n2cc(-c3ccc4c(c3)C(=O)N(Cc3cc(F)cc(F)c3)c3cc(F)ccc3N4)cn2)CC1 [I-24] |
| – | ≥ 0.75 µM | ≥ 0.75 µM | – | – | CN1CCC(n2cc(-c3ccc4c(c3)C(=O)N(Cc3cccc(F)c3)c3cc(F)ccc3N4)cn2)CC1 [I-22] |
| – | ≥ 0.75 µM | ≥ 0.75 µM | – | – | O=C1c2cc(-c3ccc(N4CCNCC4)cc3)ccc2Nc2ncc(F)cc2N1Cc1ccccc1 [I-12] |
| – | ≥ 0.75 µM | < 0.25 µM | – | – | O=C1c2cc(-c3ccc(N4CCNCC4)cc3)ccc2Nc2ccc(F)cc2N1Cc1cccc2cc[nH]c12 [I-18] |
| – | ≥ 0.75 µM | ≥ 0.75 µM | – | – | CN1CCC(n2cc(-c3ccc4c(c3)C(=O)N(Cc3cccc5cc[nH]c35)c3cc(F)ccc3N4)cn2)CC1 [I-25] |
| – | 0.25 to 0.5 µM | 0.25 to 0.5 µM | – | – | CCC(=O)Nc1ccc2c(c1)N(Cc1ccccc1)C(=O)c1cc(-c3ccc4[nH]ccc4c3)ccc1N2 [I-16] |
| – | ≥ 0.75 µM | ≥ 0.75 µM | – | – | O=C1c2cc(-c3ccc(N4CCNCC4)cc3)ccc2Nc2ccc(F)cc2N1Cc1ccc2cc[nH]c2c1 [I-19] |
| – | ≥ 0.75 µM | ≥ 0.75 µM | – | – | CC(=O)Nc1ccc2c(c1)N(Cc1ccccc1)C(=O)c1cc(-c3ccc4[nH]ccc4c3)ccc1N2 [I-15] |
